Measured values taken from patent US20240010961A1 (priority 2020, published 2024).
Where two headings read alike, the source gives them in different places.

How the values were obtained:
[1] = test system: hepatocytes; test: MOI validation: hepatocyte drug metabolism quantified in culture medium by liquid chromatography mass spectrometry; assay type: in vitro ADME; details: hepatocytes in well insert, medium sampled 0.5-72 h
Procedure: The MOI can be validated for all drugs of interest prior to applying it to sarcoma organoids. In one embodiment, the validation process includes printing 1,000-20,000 hepatocytes in the well insert and incubating in medium for 72 hours. In some embodiments, between about 5,000 and about 10,000 hepatocytes are provided in the well insert. At the 0.5, 1, 2, 4, 8, 12, 24, 48 and 72 h time-points, culture medium is collected from the well. Liquid chromatography mass spectrometry can be used to quantify the parent compound, its metabolites, and their concentrations. The goal is to identify conditions that recreate in vivo drug metabolism. […] To optimize these parameters, the size, shape, and cell density of the well insert can be changed if necessary. Hepatocyte viability and proliferation can be assessed for each time-point by Calcein AM and propidium iodide staining as well as an ATP assay. Optimal hepatocyte conditions and incubation periods for each drug can then be used in subsequent experiments.

[2] = test system: EW-7 (Ewing's sarcoma); details: EW-7 in mice; cited from earlier work
[3] = test system: SAOS-LM7 (osteosarcoma); details: cited from earlier work
[4] = test system: tumor cells
Description: Using the MOI device, tumor cells were co-cultured without, FIG. 12A, and with, FIG. 12B, liver organoid suspended on the MOI device.

O=P1(NCCCl)OCCCN1CCCl (centres unmarked) [ifosfamide]
fraction converted into chloro-acetaldehyde [1]: 25-50%
sensitivity of cell line in mice [2]: sensitive
sensitivity of cell line in mice [3]: sensitive

O=P1(N(CCCl)CCCl)NCCCO1 (centres unmarked) [cyclophosphamide]
tumor cell viability ([4]; control, without liver organoid on the MOI device (FIG. 12A), logarithmically increasing concentration): not significantly diminished
tumor cell viability ([4]; with MOI-device-supported liver organoid (FIG. 12B), higher CP concentrations): decreased
